pEC50: −log10 of the molar value.
Key:
human FPR2 = target: T1, human FPR2 (Homo sapiens, UniProt P25090); assay: FPR2 cyclic adenosine monophosphate (cAMP) assay; format: cell-based; conditions: CHO cells overexpressing human FPR2; forskolin 5 μM; inhibition of cAMP production; HTRF; read-out: hFPR2 cAMP2 EC50
T1 sequence (P25090 1-351): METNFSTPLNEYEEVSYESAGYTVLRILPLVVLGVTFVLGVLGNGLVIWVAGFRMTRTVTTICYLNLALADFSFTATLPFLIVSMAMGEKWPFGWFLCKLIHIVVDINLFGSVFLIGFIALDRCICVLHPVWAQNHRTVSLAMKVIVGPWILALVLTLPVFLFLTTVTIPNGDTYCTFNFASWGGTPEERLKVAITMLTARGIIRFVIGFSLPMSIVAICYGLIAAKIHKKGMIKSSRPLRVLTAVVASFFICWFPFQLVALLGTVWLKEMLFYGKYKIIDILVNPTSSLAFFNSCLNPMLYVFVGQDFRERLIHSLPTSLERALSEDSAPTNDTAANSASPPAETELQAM
Outline: (§1)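 Inhibition of forskolin-stimulated cAMP (final forskolin 5 μM for FPR2, 10 μM for FPR1; IBMX 200 μM) was measured by HTRF in recombinant CHO cells after 30 min at room temperature.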

human FPR1 = target: T2, human FPR1 (Homo sapiens, UniProt P21462); assay: FPR1 cyclic adenosine monophosphate (cAMP) assay; format: cell-based; conditions: CHO cells overexpressing human FPR1; forskolin 10 μM; inhibition of cAMP production; HTRF; read-out: hFPR1 cAMP2 EC50
T2 sequence (P21462 1-350): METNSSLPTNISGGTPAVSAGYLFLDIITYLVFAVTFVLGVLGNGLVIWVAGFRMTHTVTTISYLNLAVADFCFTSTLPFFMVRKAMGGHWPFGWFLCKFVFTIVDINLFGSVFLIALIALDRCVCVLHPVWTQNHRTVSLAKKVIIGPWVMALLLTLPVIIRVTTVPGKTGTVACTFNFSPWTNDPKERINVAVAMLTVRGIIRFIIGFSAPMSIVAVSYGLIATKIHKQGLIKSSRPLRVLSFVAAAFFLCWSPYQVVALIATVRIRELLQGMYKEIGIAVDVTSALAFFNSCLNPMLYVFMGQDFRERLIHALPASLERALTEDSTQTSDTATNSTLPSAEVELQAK
Outline: as §1

SMILES | pEC50 (human FPR2) | pEC50 (human FPR1)
Cn1c(-c2c(F)cc(C(F)(F)F)cc2F)c(NC(=O)c2ccc(OC(F)F)cc2)c(=O)n1-c1cccc(C(C)(C)O)n1 [Example 401, N-(5-(2,6-difluoro-4-(trifluoromethyl)phenyl)-2-(6-(2-hydroxypropan-2-yl)pyridin-2-yl)-1-methyl-3-oxo-2,3-dihydro-1H-pyrazol-4-yl)-4-(difluoromethoxy)benzamide] | 6.99 | 5.74
COc1cc(F)c(-c2c(NC(=O)c3ccc(OC(F)F)cc3)c(=O)n(-c3nc(S(C)(=O)=O)ccc3C(F)(F)F)n2C)c(F)c1 [Example 318, N-[5-(2,6-difluoro-4-methoxyphenyl)-2-[6-methanesulfonyl-3-(trifluoromethyl)pyridin-2-yl]-1-methyl-3-oxo-2,3-dihydro-1H-pyrazol-4-yl]-4-(difluoromethoxy)benzamide] | 8.15 | < 5.00
COc1cc(F)c(-c2c(NC(=O)c3ccc(OC(F)F)cc3)c(=O)n(-c3ncccc3Cl)n2C)c(F)c1 [Example 197, N-[2-(3-chloropyridin-2-yl)-5-(2,6-difluoro-4-methoxyphenyl)-1-methyl-3-oxo-2,3-dihydro-1H-pyrazol-4-yl]-4-(difluoromethoxy)benzamide] | 7.80 | < 5.00
COC(=O)COc1ccc(C(F)(F)F)c(-n2c(=O)c(NC(=O)c3ccc(OC(F)F)cc3)c(-c3c(F)cc(OC)cc3F)n2C)n1 [Example 289, methyl 2-({6-[3-(2,6-difluoro-4-methoxyphenyl)-4-[4-(difluoromethoxy)benzamido]-2-methyl-5-oxo-2,5-dihydro-1H-pyrazol-1-yl]-5-(trifluoromethyl)pyridin-2-yl}oxy)acetate] | 8.40 | < 5.00
COc1cc(F)c(-c2c(NC(=O)c3ccc(OC(F)F)cc3)c(=O)n(-c3cc(CO)cc(OCCO)n3)n2C)c(F)c1 [Example 336, N-(5-(2,6-Difluoro-4-methoxyphenyl)-2-(6-(2-hydroxyethoxy)-4-(hydroxymethyl)pyridin-2-yl)-1-methyl-3-oxo-2,3-dihydro-1H-pyrazol-4-yl)-4-(difluoromethoxy)benzamide] | 7.62 | < 5.00
COc1cc(F)c(-c2c(NC(=O)c3ccc(OC(F)F)cc3)c(=O)n(-c3cccc(N4CCN(S(C)(=O)=O)CC4)n3)n2C)c(F)c1 [Example 213, N-[5-(2,6-difluoro-4-methoxyphenyl)-2-[6-(4-methanesulfonylpiperazin-1-yl)pyridin-2-yl]-1-methyl-3-oxo-2,3-dihydro-1H-pyrazol-4-yl]-4-(difluoromethoxy)benzamide] | 7.80 | < 5.00
COc1cc(C2CCCNC2)nc(-n2c(=O)c(NC(=O)c3ccc(OC(F)F)cc3)c(-c3c(F)cc(OC)cc3F)n2C)c1 (stereo not shown) [Example 347, N-(5-(2,6-Difluoro-4-methoxyphenyl)-2-(4-methoxy-6-(piperidin-3-yl)pyridin-2-yl)-1-methyl-3-oxo-2,3-dihydro-1H-pyrazol-4-yl)-4-(difluoromethoxy)benzamide] | 8.40 | < 5.00
COc1cc(OCC2CCCO2)nc(-n2c(=O)c(NC(=O)c3ccc(OC(F)F)cc3)c(-c3c(F)cc(OC)cc3F)n2C)c1 (stereo not shown) [Example 339, N-(5-(2,6-Difluoro-4-methoxyphenyl)-2-(4-methoxy-6-((tetrahydrofuran-2-yl)methoxy)pyridin-2-yl)-1-methyl-3-oxo-2,3-dihydro-1H-pyrazol-4-yl)-4-(difluoromethoxy)benzamide] | 8.10 | < 5.00
COc1cc(OCC(C)(F)F)nc(-n2c(=O)c(NC(=O)c3ccc(OC(F)F)cc3)c(-c3c(F)cc(OC)cc3F)n2C)c1 [Example 387, N-(5-(2,6-Difluoro-4-methoxyphenyl)-2-(6-(2,2-difluoropropoxy)-4-methoxypyridin-2-yl)-1-methyl-3-oxo-2,3-dihydro-1H-pyrazol-4-yl)-4-(difluoromethoxy)benzamide] | 8.10 | < 5.00
COc1cc(F)c(-c2c(NC(=O)c3ccc(OC(F)F)cc3)c(=O)n(-c3nc(N4CC5(CC(O)C5)C4)ccc3C(F)(F)F)n2C)c(F)c1 [Example 308, N-[5-(2,6-difluoro-4-methoxyphenyl)-2-(6-{6-hydroxy-2-azaspiro[3.3]heptan-2-yl}-3-(trifluoromethyl)pyridin-2-yl)-1-methyl-3-oxo-2,3-dihydro-1H-pyrazol-4-yl]-4-(difluoromethoxy)benzamide] | 8.52 | < 5.00
COc1cc(C)cc(-n2c(=O)c(NC(=O)c3ccc(OC(F)F)cc3)c(-c3c(F)cc(OC)cc3F)n2C)c1 [Example 121, N-[5-(2,6-difluoro-4-methoxyphenyl)-2-(3-methoxy-5-methylphenyl)-1-methyl-3-oxo-2,3-dihydro-1H-pyrazol-4-yl]-4-(difluoromethoxy)benzamide] | 8.22 | < 5.00
COc1cc(F)c(-c2c(NC(=O)c3ccc(OC(F)F)cc3)c(=O)n(-c3cccc(N4CCN(C)CC4)n3)n2C)c(F)c1 [Example 83, N-[5-(2,6-difluoro-4-methoxyphenyl)-1-methyl-2-[6-(4-methylpiperazin-1-yl)pyridin-2-yl]-3-oxo-2,3-dihydro-1H-pyrazol-4-yl]-4-(difluoromethoxy)benzamide] | 8.70 | < 5.00
COc1cc(C2CCCN(C)C2)nc(-n2c(=O)c(NC(=O)c3ccc(OC(F)F)cc3)c(-c3c(F)cc(OC)cc3F)n2C)c1 (stereo not shown) [Example 343, N-(5-(2,6-Difluoro-4-methoxyphenyl)-2-(4-methoxy-6-(1-methylpiperidin-3-yl)pyridin-2-yl)-1-methyl-3-oxo-2,3-dihydro-1H-pyrazol-4-yl)-4-(difluoromethoxy)benzamide] | 9.00 | < 5.00
COc1cc(F)c(-c2c(NC(=O)c3ccc(OC(F)(F)F)cc3)c(=O)n(-c3cccc(C(F)F)n3)n2C)c(F)c1 [Example 68, N-[5-(2,6-difluoro-4-methoxyphenyl)-2-[6-(difluoromethyl)pyridin-2-yl]-1-methyl-3-oxo-2,3-dihydro-1H-pyrazol-4-yl]-4-(trifluoromethoxy)benzamide] | 8.10 | 6.00
COc1cc(OCC(F)(F)F)nc(-n2c(=O)c(NC(=O)c3ccc(OC(F)F)cc3)c(-c3c(F)cc(OC)cc3F)n2C)c1 [Example 389, N-(5-(2,6-Difluoro-4-methoxyphenyl)-2-(4-methoxy-6-(2,2,2-trifluoroethoxy)pyridin-2-yl)-1-methyl-3-oxo-2,3-dihydro-1H-pyrazol-4-yl)-4-(difluoromethoxy)benzamide] | 8.22 | 5.35
COc1cc(OCC2(C)COC2)nc(-n2c(=O)c(NC(=O)c3ccc(OC(F)F)cc3)c(-c3c(F)cc(OC)cc3F)n2C)c1 [Example 344, N-(5-(2,6-Difluoro-4-methoxyphenyl)-2-(4-methoxy-6-((3-methyloxetan-3-yl)methoxy)pyridin-2-yl)-1-methyl-3-oxo-2,3-dihydro-1H-pyrazol-4-yl)-4-(difluoromethoxy)benzamide] | 8.70 | 5.62
Cn1c(-c2ccc(OC(F)F)cc2)c(NC(=O)c2ccc(OC(F)F)cc2)c(=O)n1-c1ncccc1C(F)(F)F [Example 281, 4-(difluoromethoxy)-N-{5-[4-(difluoromethoxy)phenyl]-1-methyl-3-oxo-2-[3-(trifluoromethyl)pyridin-2-yl]-2,3-dihydro-1H-pyrazol-4-yl}benzamide] | 7.74 | 6.30
COc1cc(F)c(-c2c(NC(=O)c3ccc(OC(F)F)cc3)c(=O)n(-c3cc(Cl)cc(N4C[C@H]5C[C@@H]4CN5)c3)n2C)c(F)c1 [Example 149, N-(2-{3-chloro-5-[(1R,4R)-2,5-diazabicyclo[2.2.1]heptan-2-yl]phenyl}-5-(2,6-difluoro-4-methoxyphenyl)-1-methyl-3-oxo-2,3-dihydro-1H-pyrazol-4-yl)-4-(difluoromethoxy)benzamide] | 8.22 | 5.33
COc1cc(F)c(-c2c(NC(=O)c3ccc(OC(F)F)cc3)c(=O)n(-c3cc(Cl)cc(C(F)(F)F)c3)n2C)c(F)c1 [Example 131, N-{2-[3-chloro-5-(trifluoromethyl)phenyl]-5-(2,6-difluoro-4-methoxyphenyl)-1-methyl-3-oxo-2,3-dihydro-1H-pyrazol-4-yl}-4-(difluoromethoxy)benzamide] | 7.96 | < 5.00
COc1cc(F)c(-c2c(NC(=O)c3ccc(OC(F)(F)F)cc3)c(=O)n(-c3ncccc3C#N)n2C)c(F)c1 [Example 56, N-[2-(3-cyanopyridin-2-yl)-5-(2,6-difluoro-4-methoxyphenyl)-1-methyl-3-oxo-2,3-dihydro-1H-pyrazol-4-yl]-4-(trifluoromethoxy)benzamide] | 8.15 | < 5.00

— US12577206B2 (BRISTOL-MYERS SQUIBB COMPANY, priority 2020, dated 2026)
